Source: PubChem BioAssay (NCI)
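Tested at 5 concentrations; 48 h exposure; 96-well plates; endpoints linearly interpolated, else capped at highest concentration. GI50 = concentration required for 50% inhibition of growth. TGI is the concentration that stops growth completely.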

Assays:
Assay in all cases: growth of human tumour cells (NCI), 48 h
COLO 205 colon = test system: COLO 205 colon
HCT-116 colon = test system: HCT-116 colon
HCT-15 colon = test system: HCT-15 colon
HOP-92 NSCLC = test system: HOP-92 NSCLC
M14 melanoma = test system: M14 melanoma
MDA-MB-435 = test system: MDA-MB-435
NCI-H23 lung = test system: NCI-H23 lung
PC-3 prostate = test system: PC-3 prostate
UACC-257 melanoma = test system: UACC-257 melanoma
SNB-75 CNS = test system: SNB-75 CNS

Row | SMILES | TGI (COLO 205 colon) [µM] | TGI (HCT-116 colon) [µM] | TGI (HCT-15 colon) [µM] | TGI (HOP-92 NSCLC) [µM] | TGI (M14 melanoma) [µM] | TGI (MDA-MB-435) [µM] | TGI (NCI-H23 lung) [µM] | TGI (PC-3 prostate) [µM] | TGI (UACC-257 melanoma) [µM] | TGI (SNB-75 CNS) [µM] | GI50 (COLO 205 colon) [µM] | GI50 (HOP-92 NSCLC) [µM] | GI50 (NCI-H23 lung) [µM] | GI50 (PC-3 prostate) [µM] | GI50 (SNB-75 CNS) [µM] | GI50 (UACC-257 melanoma) [µM]
1 | C=CCSC1=N/C(=C\c2ccc(Cl)cc2)C(=O)N1CC=C | > 100 | > 100 | > 100 | 82.2 | > 100 | > 100 | > 100 | 54.2 | 76.7 | – | – | – | – | – | – | –
2 | CC1=NNC(=O)C1C1C(=O)NN=C(c2c[nH]c3ccccc23)C1Br (configuration not stated) | > 100 | > 100 | > 100 | > 100 | > 100 | > 100 | > 100 | > 100 | > 100 | 58.9 | – | – | – | – | – | –
3 | Cc1ccc2nc(SCC(=O)N=Nc3c(O)[nH]c4ccccc34)n(-c3ccccc3)c(=O)c2c1 | 33 | 28.4 | 40.5 | 29.6 | 29.8 | 33.7 | 33.1 | 36.1 | 55.7 | – | – | – | – | – | – | –
4 | CCCCN(CCCC)Cc1cc(Nc2ccnc3cc(Cl)ccc23)ccc1O | > 100 | – | – | 22.9 | – | – | > 100 | > 100 | > 100 | 13.6 | 6.68 | 0.982 | 8.23 | 5.73 | 2.83 | 40.1
5 | C=CCC1(C#N)C(=S)NC2=C(C(=O)CC(C)(C)C2)C1c1ccccc1 (configuration not stated) | > 100 | > 100 | > 100 | 90.2 | > 100 | > 100 | > 100 | > 100 | – | 74.8 | – | – | – | – | – | –
6 | O=C(Nc1ccccc1F)c1cc2ccc(O)cc2oc1=Nc1cccc(F)c1 | 77.3 | 24.8 | 24.4 | – | 38.6 | 35.7 | 5.36 | 48 | 65.6 | – | – | – | – | – | – | –
7 | Cc1ccc(C)c(NC(=O)C(=O)C(C(=O)c2ccc3ccccc3c2)C2OC(=O)c3ccccc32)c1 (configuration not stated) | 32.1 | 24.9 | 44.8 | 78 | 28.8 | – | 54.8 | – | 36.5 | 58.8 | – | – | – | – | – | –
8 | S=C1c2ccc(Cl)cc2-n2cnnc2C2CSCN12 (configuration not stated) | > 100 | > 100 | > 100 | – | > 100 | > 100 | – | > 100 | > 100 | > 100 | – | – | – | – | – | –
9 | COC(=O)C1(NC(=O)C(CC(=O)OCc2ccccc2)NC(=O)OCc2ccccc2)CCCCCC1 (configuration not stated) | 47.3 | > 100 | > 100 | > 100 | > 100 | 74.4 | > 100 | > 100 | – | > 100 | – | – | – | – | – | –
10 | O=C(O)CC(Cc1ccccc1Cl)C(=O)O (configuration not stated) | > 100 | > 100 | > 100 | > 100 | > 100 | > 100 | > 100 | > 100 | > 100 | – | – | – | – | – | – | –
11 | Cc1ccc(S(=O)(=O)NC(=O)Nc2nnc(S(N)(=O)=O)s2)cc1 | > 100 | > 100 | > 100 | > 100 | > 100 | > 100 | > 100 | > 100 | – | > 100 | – | – | – | – | – | –
12 | Nc1n(CC(=O)c2ccccc2)nc2sc(-c3ccccc3)n[n+]12 | 47 | – | > 100 | – | > 100 | 8.95 | 59.5 | 78.8 | > 100 | > 100 | – | – | – | – | – | –
13 | O=S1(=O)c2ccccc2Oc2ccc(C(/C=N/O)=N/O)cc21 | > 100 | > 100 | > 100 | > 100 | > 100 | 52.4 | – | > 100 | – | > 100 | – | – | – | – | – | –
14 | CCO/C(=N/S(=O)(=O)C(F)(F)F)N(C(C)C)C(C)C | > 100 | > 100 | > 100 | > 100 | > 100 | > 100 | > 100 | > 100 | > 100 | – | – | – | – | – | – | –
15 | O=C(Nc1ccccc1)N(C1=NCC(CI)S1)c1ccc(F)c(F)c1 (configuration not stated) | > 100 | > 100 | > 100 | 26.3 | – | – | > 100 | > 100 | > 100 | 55.6 | – | – | – | – | – | –
16 | O=C1[C@H](O)[C@@H]2C(O)O[C@H]3[C@@H]2N1C[C@H]3[Si](c1ccccc1)(c1ccccc1)c1ccccc1 (some centres not stated) | > 100 | > 100 | > 100 | – | > 100 | > 100 | > 100 | > 100 | > 100 | 69.4 | – | – | – | – | – | –
17 | CCN(CCCOc1ccccc1)CCN(CC)CCCOc1ccccc1 | 24.5 | > 100 | 30 | – | 34.6 | 34.2 | 40.6 | 5.14 | 31.5 | 48.6 | – | – | – | – | – | –
18 | C1=C(c2ccccc2)SC(N2CCCCC2)S1 (configuration not stated) | > 100 | > 100 | > 100 | > 100 | > 100 | – | > 100 | – | > 100 | > 100 | – | – | – | – | – | –
19 | C=CCn1c(=O)c(C)cn(COCCO)c1=O | > 100 | – | – | > 100 | > 100 | > 100 | > 100 | > 100 | > 100 | > 100 | – | – | – | – | – | –
20 | c1ncn(C23C4C5C6C4C2C6C53)n1 (configuration not stated) | > 100 | > 100 | > 100 | – | – | > 100 | > 100 | > 100 | > 100 | > 100 | – | – | – | – | – | –
21 | Cn1c(=O)c2[nH]c(N/N=N/c3nncs3)nc2n(C)c1=O | > 100 | > 100 | > 100 | > 100 | > 100 | > 100 | > 100 | > 100 | > 100 | – | – | – | – | – | – | –
22 | CCOC(=O)c1ccc(-n2[nH]nc(C(N)=O)c2=O)cc1 | > 100 | > 100 | > 100 | – | > 100 | > 100 | > 100 | > 100 | > 100 | > 100 | – | – | – | – | – | –
23 | c1ccc(/C(=N/Nc2nc3ccccc3s2)C2CCCCC2)nc1 | 13.1 | 14.8 | 15.8 | 22.1 | 27.7 | 39.3 | 21.8 | 24.3 | 17.5 | – | – | – | – | – | – | –
